Data on 1 compound can be found in patent publication US11819497B2 (Azurity Pharmaceuticals, Inc., priority 2018, dated 2023).

Converted amounts (≈) assume the structure as drawn.

A short description of this data set: Solubility of nimodipine in various aqueous solvent systems. Type of data set: physicochemical. The note with it: for solubility: aqueous solvent system (glycerin/ethanol/water/PEG400), aqueous with cosolvent or surfactant or cyclodextrin, thermodynamic from solid, Nimodipine solubility.

In the case of `COCCOC(=O)C1=C(C)NC(C)=C(C(=O)OC(C)C)C1c1cccc([N+](=O)[O-])c1` (stereo not drawn) [Nimodipine], the solubility was found to be 43000 µg/mL (≈ 103 mM) (Glycerin 0%, Ethanol 0%, Water 1%, PEG400 99%); 38000 µg/mL (≈ 90.8 mM) (Glycerin 0%, Ethanol 0%, Water 5%, PEG400 95%); 26000 µg/mL (≈ 62.1 mM) (Glycerin 0%, Ethanol 0%, Water 10%, PEG400 90%); 14000 µg/mL (≈ 33.5 mM) (Glycerin 0%, Ethanol 0%, Water 15%, PEG400 85%); 1300 µg/mL (≈ 3.11 mM) (Glycerin 0%, Ethanol 0%, Water 40%, PEG400 60%); 400 µg/mL (≈ 0.956 mM) (Glycerin 0%, Ethanol 0%, Water 50%, PEG400 50%). Also, the solubility came to 31000 µg/mL (≈ 74.1 mM) (Glycerin 0%, Ethanol 1.0%, Water 10%, PEG400 89%); 18000 µg/mL (≈ 43 mM) (Glycerin 0%, Ethanol 1.0%, Water 20%, PEG400 79%); 29000 µg/mL (≈ 69.3 mM) (Glycerin 0%, Ethanol 5.0%, Water 10%, PEG400 85%); 14000 µg/mL (≈ 33.5 mM) (Glycerin 0%, Ethanol 5.0%, Water 20%, PEG400 75%); 1500 µg/mL (≈ 3.58 mM) (Glycerin 20%, Ethanol 0%, Water 20%, PEG400 60%); 1600 µg/mL (≈ 3.82 mM) (Glycerin 30%, Ethanol 0%, Water 10%, PEG400 60%). The solubility came out at 13400 µg/mL (≈ 32 mM) (Glycerin 35%, Ethanol 0.4%, Water 1%, PEG400 63%); 5700 µg/mL (≈ 13.6 mM) (Glycerin 35%, Ethanol 0.4%, Water 10%, PEG400 54%); 1500 µg/mL (≈ 3.58 mM) (Glycerin 36%, Ethanol 0.4%, Water 20%, PEG400 43% (Table VI)); 1500 µg/mL (≈ 3.58 mM) (Glycerin 36%, Ethanol 0.4%, Water 20%, PEG400 43% (Table VII)); 2100 µg/mL (≈ 5.02 mM) (Glycerin 39%, Ethanol 0%, Water 1%, PEG400 60%); 1500 µg/mL (≈ 3.58 mM) (Glycerin 46%, Ethanol 0.4%, Water 10%, PEG400 43%). Also, the solubility (Glycerin 51%, Ethanol 0.4%, Water 5%, PEG400 43%) is 4300 µg/mL (≈ 10.3 mM) and the concentration in solution (Glycerin 55%, Ethanol 0.4%, Water 1%, PEG400 43%, room temperature) (solubility) was 5200 µg/mL (≈ 12.4 mM). Besides, under “water, polyethylene glycol, ethanol solvent system, higher amounts of ethanol (Example 2)”, the “Effect of higher amounts of ethanol on nimodipine solubility” value is recorded as “reduced nimodipine solubility”.
